Holding throughout (type): cell-based
The subject of one assay is Bacillus subtilis. Kind of assay: Broth two-fold microdilution. To be noted: B. subtilis CCM1999; Mueller Hinton broth, 300–0.0732 µg/mL (control 32–0.0625), 37 °C 16 h, triplicate; MIC = least concentration showing any inhibition in the growth. On the procedure:
Furthermore, compound 1 was evaluated for its antimicrobial activity against five bacterial isolates; S. aureus (CCM3824), B. subtilis (CCM1999), S. sanguinis (CCM4047), P. aeruginosa (CCM1959), E. coli (CCM2024), and eight fungal isolates; C. friedrichii (BCC020_2879), A. fumigatus (BCC020_2845), F. oxysporum (BCC020_2866), T. harzianum (BCC020_0606), B. sorokiniana (BCC020_1571), M. cucumerina (BCC020_2872), C. globosum (BCC020_2527), and A. alternata (BCC020_0609) using broth two-fold microdilution method following the standard protocol. Briefly, for broth microdilution method, the compounds were serially diluted at varying concentrations between 300 and 0.0732 µg/mL in Mueller Hinton broth (for bacteria) and Muller Hinton broth with 2% glucose (for fungi) in 96-well plates. Culture broth (0.1 mL) was added to each well containing the compound. […] MIC95 was determined as the concentration required to inhibit or kill 95% of bacterial isolates spectroscopically at 600 nm. Minimum fungicidal concentration (MFCs) were determined after 48 h incubation by removing 10 µL of the contents from wells showing no visible growth and spreading them on to Sabouraud dextrose agar plates. The plates were then incubated for 72 h and MFCs were determined as the concentrations which killed 95–100% of the inoculum. […]

A further assay concerns Alternaria alternata. As to the kind of experiment: microbe, parasite or virus in culture. As for the experimental part:
(§1) Furthermore, compound 1 was evaluated for its antimicrobial activity against five bacterial isolates; S. aureus (CCM3824), B. subtilis (CCM1999), S. sanguinis (CCM4047), P. aeruginosa (CCM1959), E. coli (CCM2024), and eight fungal isolates; C. friedrichii (BCC020_2879), A. fumigatus (BCC020_2845), F. oxysporum (BCC020_2866), T. harzianum (BCC020_0606), B. sorokiniana (BCC020_1571), M. cucumerina (BCC020_2872), C. globosum (BCC020_2527), and A. alternata (BCC020_0609) using broth two-fold microdilution method following the standard protocol. Briefly, for broth microdilution method, the compounds were serially diluted at varying concentrations between 300 and 0.0732 µg/mL in Mueller Hinton broth (for bacteria) and Muller Hinton broth with 2% glucose (for fungi) in 96-well plates. Culture broth (0.1 mL) was added to each well containing the compound. Plates were incubated aerobically at 37 °C for 16 h (bacteria) and 30 °C for 48 h (for fungi). Negative controls were prepared separately with respective organisms in the same culture media with methanol (the dissolving solvent). Positive controls were also prepared separately with respective organisms. Erythromycin (32–0.0625 µg/mL) was used as positive control for S. aureus and S. sanguinis, gentamycin (32–0.0625 µg/mL) was used as positive control for Bacillus subtilis, E. coli, and P. aeruginosa, whereas fluconazole (32–0.0625 µg/mL) was used as positive control for all the fungal isolates. After incubation, the well with the least concentration of the compound showing any inhibition in the growth was taken as the MIC value for the respective organisms. MIC95 was determined as the concentration required to inhibit or kill 95% of bacterial isolates spectroscopically at 600 nm. Minimum fungicidal concentration (MFCs) were determined after 48 h incubation by removing 10 µL of the contents from wells showing no visible growth and spreading them on to Sabouraud dextrose agar plates. The plates were then incubated for 72 h and MFCs were determined as the concentrations which killed 95–100% of the inoculum. All the experiments were done in triplicate.

The test system of another assay is Aspergillus fumigatus. As to the kind of experiment: microbe, parasite or virus in culture. On the procedure:
as §1

The subject of another assay is Candida friedrichii. As to the kind of experiment: microbe, parasite or virus in culture. On the procedure: as §1
The test system of the next assay is Chaetomium globosum. Kind of assay: microbe, parasite or virus in culture. On the procedure: as §1
Another assay has as its system Fusarium oxysporum. Kind of assay: microbe, parasite or virus in culture. As for the experimental part: as §1
The subject of a further assay is Monographella cucumerina. As to the kind of experiment: microbe, parasite or virus in culture. As for the experimental part: as §1
Another assay deals with Trichoderma harzianum. As to the kind of experiment: microbe, parasite or virus in culture. On the procedure: as §1

This is an account of results in publication PMC6222847, “Application of HPCCC Combined with Polymeric Resins and HPLC for the Separation of Cyclic Lipopeptides Muscotoxins A–C and Their Antimicrobial Activity” (Molecules : A Journal of Synthetic Chemistry and Natural …, 2018).

In brackets after ≈: the same amount, converted by molar mass. *1 amine or outer side, *2 acyl side, *3 side chain or, on linkers, in order; H or OH if unused. Where a SMILES comes first, the peptide text is derived from it. [ ]: non-standard residue; d: D form. X1 = CCCCCC(O)CC(N[*:1])C(O)C(=O)[*:2]; d(aIle) = CC[C@H](C)[C@@H](N)C(=O)O; Dhb = C/C=C(\N)C(=O)O Bounds are passed on as bounds.

In the case of `C/C=C1\NC(=O)[C@H](CO)NC(=O)[C@@H]([C@@H](C)CC)NC(=O)[C@H](Cc2ccccc2)NC(=O)[C@@H]2CCCN2C(=O)CNC(=O)[C@@H](CCC(N)=O)NC(=O)C(O)C(CC(O)CCCCC)NC(=O)[C@@H]2CCCN2C(=O)[C@@H]([C@@H](C)CC)NC(=O)[C@H](CO)NC1=O` (stereo partly drawn) [compound 2, muscotoxin A] (cyclo([Dhb]S[d(aIle)]P[X1][dQ]GPF[d(aIle)]S)), the MIC in the assay on Bacillus subtilis is on record as 37.5 µg/mL (≈ 31 µM); against Alternaria alternata (A. alternata BCC020_0609, Muller Hinton broth with 2% glucose, 300–0.0732 µg/mL (control 32–0.0625), 30 °C 48 h, triplicate, least concentration showing any inhibition), 0.58 µg/mL (≈ 0.479 µM); against Aspergillus fumigatus (A. fumigatus BCC020_2845, Muller Hinton broth with 2% glucose, 300–0.0732 µg/mL (control 32–0.0625), 30 °C 48 h, triplicate, least concentration showing any inhibition) it was 2.34 µg/mL (≈ 1.93 µM); against Candida friedrichii (C. friedrichii BCC020_2879, Muller Hinton broth with 2% glucose, 300–0.0732 µg/mL (control 32–0.0625), 30 °C 48 h, triplicate, least concentration showing any inhibition), 75 µg/mL (≈ 61.9 µM); in the assay with Chaetomium globosum (C. globosum BCC020_2527, Muller Hinton broth with 2% glucose, 300–0.0732 µg/mL (control 32–0.0625), 30 °C 48 h, triplicate, least concentration showing any inhibition) it was 18.75 µg/mL (≈ 15.5 µM); with Fusarium oxysporum (F. oxysporum BCC020_2866, Muller Hinton broth with 2% glucose, 300–0.0732 µg/mL (control 32–0.0625), 30 °C 48 h, triplicate, least concentration showing any inhibition) it was 75 µg/mL (≈ 61.9 µM). Besides, the MIC amounted to 2.34 µg/mL (≈ 1.93 µM) against Monographella cucumerina (M. cucumerina BCC020_2872, Muller Hinton broth with 2% glucose, 300–0.0732 µg/mL (control 32–0.0625), 30 °C 48 h, triplicate, least concentration showing any inhibition) and 37.5 µg/mL (≈ 31 µM) in the assay on Trichoderma harzianum (T. harzianum BCC020_0606, Muller Hinton broth with 2% glucose, 300–0.0732 µg/mL (control 32–0.0625), 30 °C 48 h, triplicate, least concentration showing any inhibition). Moreover, the MFC is on record as 75 µg/mL (≈ 61.9 µM) in the assay with Alternaria alternata (A. alternata, 10 µL from wells without visible growth after 48 h spread on Sabouraud dextrose agar, 72 h, kills 95–100% of the inoculum); 37.5 µg/mL (≈ 31 µM) against Aspergillus fumigatus (A. fumigatus, 10 µL from wells without visible growth after 48 h spread on Sabouraud dextrose agar, 72 h, kills 95–100% of the inoculum); under 300 µg/mL against Candida friedrichii (C. friedrichii, 10 µL from wells without visible growth after 48 h spread on Sabouraud dextrose agar, 72 h, kills 95–100% of the inoculum); under 300 µg/mL against Chaetomium globosum (C. globosum, 10 µL from wells without visible growth after 48 h spread on Sabouraud dextrose agar, 72 h, kills 95–100% of the inoculum); under 300 µg/mL with Fusarium oxysporum (F. oxysporum, 10 µL from wells without visible growth after 48 h spread on Sabouraud dextrose agar, 72 h, kills 95–100% of the inoculum); 75 µg/mL (≈ 61.9 µM) in the assay on Monographella cucumerina (M. cucumerina, 10 µL from wells without visible growth after 48 h spread on Sabouraud dextrose agar, 72 h, kills 95–100% of the inoculum). Also, the MFC with Trichoderma harzianum (T. harzianum, 10 µL from wells without visible growth after 48 h spread on Sabouraud dextrose agar, 72 h, kills 95–100% of the inoculum) was determined as 300 µg/mL (≈ 248 µM).
